Like-named read-outs stand apart in the source and are kept apart here.
Legend:
A. fumigatus = assay: MIC of 3'-deoxynucleosides in cell cultures (microtiter plates, 24 hours); format: cell-based; conditions: Aspergillus fumigatus
Protocol: (§1) Cell cultures of various organisms were established in microtiter plates and maintained for a period of 24 hours after the addition of a 3'-deoxynucleoside (3'-dA, 3'-dG, 3'-dC, 3'-dU) (Calbiochem; San Diego, Calif.; Fluka Chemical; Ronkonkoma, N.Y.; Pharmacia Biotech; Piscataway, N.J.) or amphotericin B in μg/ml (Sigma Chemical; St. Louis, Mo.) as control.

C. albicans = assay: as above; format: cell-based; conditions: Candida albicans
Protocol: as §1

C. neoformans = assay: as above; format: cell-based; conditions: Cryptococcus neoformans
Protocol: as §1

C. tropicalis = assay: as above; format: cell-based; conditions: Candida tropicalis
Protocol: as §1

Rhizopus = assay: as above; format: cell-based
Protocol: as §1

Candida albicans [1] = assay: Mortality in Candida albicans infected mice; format: in vivo; conditions: ICR mice, 10^6 cfu C. albicans; for Survival After 25 Days: 10 days i.p.: 3'-deoxyadenosine 1.5, deoxycoformycin 0.4, amphotericin B 1.0 mg/kg/day, n=10, control 40%; for Survival After 15 Days: second experiment, 10 days i.p., same doses, n=8, control 0%
Protocol: Halen Sprague Dawley ICR mice were injected is with approximately 10^6 cfu of Candida albicans. Twenty-four hours after injection, mice were treated for 10 days with the indicated agents: 3'-deoxyadenosine (Sigma Chemical; St. Louis, Mo.) at 1.5 mg/kg/day i.p., deoxycoformycin (Sigma Chemical; St. Louis, Mo.) at 0.4 mg/kg/day i.p., amphotericin B (Sigma Chemical; St. Louis, Mo.) at 1.0 mg/kg/day i.p. Survival after 25 days is shown in Tables 2 and 3.

Candida albicans [2] = assay: Time to reach LD50 in Candida albicans infected mice; format: in vivo; conditions: ICR mice, 10^6 cfu C. albicans; 10 days i.p.: 3'-deoxyadenosine 1.5, deoxycoformycin 0.4, amphotericin B 1.0 mg/kg/day; control 6
Protocol: Halen Sprague Dawley ICR mice were injected with approximately 10^6 cfu Candida albicans and treated for 10 days with the following agents: 3'-deoxyadenosine (Sigma Chemical; St. Louis, Mo.) at 1.5 mg/kg/day i.p., deoxycoformycin (Sigma Chemical; St. Louis, Mo.) at 0.4 mg/kg/day i.p., amphotericin B (Sigma Chemical; St. Louis, Mo.) at 1.0 mg/kg/day i.p. Time in days to reach LD50 is shown in Table 4.

8402 cells = assay: Cytotoxicity to neoplastic cells in tissue culture; format: cell-based; conditions: 8402 (TdT-positive), in the presence of coformycin; read-out: cytotoxic IC50
Protocol: (§2) Cell lines were maintained in FCS/DMEM (GIBCO/BRL; Grand Island, N.Y.) at 37° C. with 5% CO2 and treated with cordycepin, coformycin or cordycepin plus coformycin, or remain untreated as controls. In the presence of coformycin, cordycepin was specifically cytotoxic at IC50 of less than 0.5 μM for the TdT-positive cells NALM-6, HPB-ALL, MOLT-4, CEM and 8402 cells. […] The earliest manifestations of cytotoxic damage by cordycepin in TdT (terminal deoxynudeotidyl tranferase)-positive cells was the emergence of classic features of apoptosis such as membrane blebbing, volume loss, chromatin clumping and inter-nucleosomal DNA digestion into 180 base pair (bp) multiples. In contrast, the cytotoxic damage seen when TdT-negative cells are exposed to high levels (greater than 5.0 μM) of cordycepin is associated with random DNA breakdown and necrosis. Since apoptosis in normal TdT-positive thymocytes is stimulated by protein kinase A (PK-A) activity, and inhibited by protein kinase C (PK-C) activity, PK-A and PK-C activities were measured in TdT-positive and TdT-negative cell lines after exposure to cordycepin.

CEM = assay: Cytotoxicity to neoplastic cells in tissue culture; format: cell-based; conditions: CEM (TdT-positive), in the presence of coformycin; read-out: cytotoxic IC50
Protocol: as §2

HPB-ALL = assay: Cytotoxicity to neoplastic cells in tissue culture; format: cell-based; conditions: HPB-ALL (TdT-positive), in the presence of coformycin; read-out: cytotoxic IC50
Protocol: as §2

MOLT-4 = assay: Cytotoxicity to neoplastic cells in tissue culture; format: cell-based; conditions: MOLT-4 (TdT-positive), in the presence of coformycin; read-out: cytotoxic IC50
Protocol: as §2

NALM-6 = assay: Cytotoxicity to neoplastic cells in tissue culture; format: cell-based; conditions: NALM-6 (TdT-positive), in the presence of coformycin; read-out: cytotoxic IC50
Protocol: as §2

protein kinase A (PK-A) = assay: PK-A activity in TdT-positive and TdT-negative cell lines after exposure; format: cell-based
Protocol: (§3) Cell lines were maintained in FCS/DMEM (GIBCO/BRL; Grand Island, N.Y.) at 37° C. with 5% CO2 and treated with cordycepin, coformycin or cordycepin plus coformycin, or remain untreated as controls. […] Since apoptosis in normal TdT-positive thymocytes is stimulated by protein kinase A (PK-A) activity, and inhibited by protein kinase C (PK-C) activity, PK-A and PK-C activities were measured in TdT-positive and TdT-negative cell lines after exposure to cordycepin.

protein kinase C (PK-C) = assay: PK-C activity in TdT-positive and TdT-negative cell lines after exposure; format: cell-based
Protocol: as §3

[3] = A. fumigatus, 24 hours, read-out: MIC
[4] = C. albicans, 24 hours, read-out: MIC
[5] = C. neoformans, 24 hours, read-out: MIC
[6] = C. tropicalis, 24 hours, read-out: MIC

Compound	MIC (A. fumigatus; [3]) [µM]	MIC (C. albicans; [4]) [µM]	MIC (C. neoformans; [5]) [µM]	MIC (C. tropicalis; [6]) [µM]	MIC (Rhizopus; 24 hours, read-out: MIC) [µM]	Survival After 25 Days (Candida albicans [1]) [%]	Survival After 15 Days (Candida albicans [1]) [%]	Days to Reach LD50 (Candida albicans [2]) [days]	other results
O=c1ccn([C@@H]2O[C@H](CO)C[C@H]2O)c(=O)[nH]1 [3'-dU]	> 20	> 20	> 20	> 20	> 20	–	–	–	–
Nc1ncnc2c1ncn2[C@@H]1O[C@H](CO)C[C@H]1O [3'-dA, 3'-deoxyadenosine]	5	20	20	20	> 20	30	37.5	9.5	IC50 (8402 cells): < 500 nM; IC50 (CEM): < 500 nM; IC50 (HPB-ALL): < 500 nM; IC50 (MOLT-4): < 500 nM; IC50 (NALM-6): < 500 nM; PK-A activity change (protein kinase A (PK-A); TdT-negative cells): unchanged; PK-A activity increase (protein kinase A (PK-A); TdT-positive cells, within 2 hours of exposure): 8-10 fold; PK-C activity change (protein kinase C (PK-C); TdT-negative cells): unchanged; PK-C activity change (protein kinase C (PK-C); TdT-positive cells): unchanged
Nc1nc2c(ncn2[C@@H]2O[C@H](CO)C[C@H]2O)c(=O)[nH]1 [3'-dG]	> 20	> 20	> 20	> 20	> 20	–	–	–	–
Nc1ccn([C@@H]2O[C@H](CO)C[C@H]2O)c(=O)n1 [3'-dC]	20	> 20	> 20	> 20	> 20	–	–	–	–
C[C@@H]1[C@H](O)[C@@H](C)/C=C/C=C/C=C/C=C/C=C/C=C/C=C/[C@H](O[C@@H]2O[C@H](C)[C@@H](O)[C@H](N)[C@@H]2O)C[C@@H]2O[C@](O)(C[C@@H](O)C[C@@H](O)[C@H](O)CC[C@@H](O)C[C@@H](O)CC(=O)O[C@H]1C)C[C@H](O)[C@H]2C(=O)O [Amphotericin B, amphotericin B]	–	–	–	–	–	90	50.0	> 30	MIC (A. fumigatus; 24 h): 1.25 µg/mL; MIC (C. albicans; 24 h): < 0.6 µg/mL; MIC (C. neoformans; 24 h): 2.5 µg/mL; MIC (C. tropicalis; 24 h): 1.25 µg/mL; MIC (Rhizopus; 24 h): 2.5 µg/mL
OC[C@H]1O[C@@H](n2cnc3c2NC=NC[C@H]3O)C[C@@H]1O [deoxycoformycin]	–	–	–	–	–	30	25.0	5	–
